From publication PMC11240878, “Synthesis, enzyme inhibition assay, and molecular modeling study of novel pyrazolines linked to 4-methylsulfonylphenyl scaffold: antitumor activity and cell cycle analysis” (RSC Advances, 2024)

Legend:
59 cancer cell lines = experiment: NCI 59 cancer cell line panel, single dose; type: cell-based, human; details: 10 μM single dose; for MG% (mean growth percent): 59 cell lines; for Mean GI% Breast cancer: breast cancer subpanel; for Mean GI% Leukemia: leukemia subpanel
HL-60(TB) = experiment: NCI single-dose GI%, leukemia; type: cell-based, human; details: 10.0 μM in one dose
K-562 = experiment: NCI single-dose GI%, leukemia; type: cell-based, human; details: K-562, leukemia; 10.0 μM in one dose
MOLT-4 = experiment: NCI single-dose GI%, leukemia; type: cell-based, human; details: MOLT-4, leukemia; 10.0 μM in one dose
EKVX = experiment: NCI single-dose GI%, NSC lung; type: cell-based, human; details: 10.0 μM in one dose
HOP-62 = experiment: NCI single-dose GI%, NSC lung; type: cell-based, human; details: HOP-62, NSC lung; 10.0 μM in one dose
NCI-H522 = experiment: NCI single-dose GI%, NSC lung; type: cell-based, human; details: 10.0 μM in one dose
COLO 205 = experiment: NCI single-dose GI%, colon; type: cell-based, human; details: COLO 205, colon; 10.0 μM in one dose
HT29 = experiment: NCI single-dose GI%, colon; type: cell-based, human; details: 10.0 μM in one dose
U251 = experiment: NCI single-dose GI%, CNS; type: cell-based, human; details: 10.0 μM in one dose
UACC-257 = experiment: NCI single-dose GI%, melanoma; type: cell-based, human; details: UACC-257, melanoma; 10.0 μM in one dose
SK-OV-3 = experiment: NCI single-dose GI%, ovarian; type: cell-based, human; details: SK-OV-3, ovarian; 10.0 μM in one dose
CAKI-1 = experiment: NCI single-dose GI%, renal; type: cell-based, human; details: CAKI-1, renal; 10.0 μM in one dose
UO-31 = experiment: NCI single-dose GI%, renal; type: cell-based, human; details: UO-31, renal; 10.0 μM in one dose
MCF7 = experiment: NCI single-dose GI%, breast; type: cell-based, human; details: 10.0 μM in one dose
BT-549 = experiment: NCI single-dose GI%, breast; type: cell-based, human; details: BT-549, breast; 10.0 μM in one dose
T-47D = experiment: NCI single-dose GI%, breast; type: cell-based, human; details: 10.0 μM in one dose
MDA-MB-231 = experiment: cells; details: Homo sapiens, MDA-MB-231, 48 h, read-out: In vitro cytotoxicity IC50
Procedure: (§1) The antitumor experiment was conducted on 59 human tumor cell lines derived from nine different human tissues, following the procedure of the Drug Evaluation Branch at the NCI, Bethesda, MD.[33]

leukemia HL-60 = experiment: cells; details: Homo sapiens, HL-60, 48 h, read-out: In vitro cytotoxicity IC50
Procedure: as §1

in vitro = details: human
Procedure: (§2) A normal fibroblast-like fetal lung cell line (WI-38) was used to further investigate the therapeutic safety of the newly synthesized hybrids and evaluate their selective cytotoxicity toward normal and tumor cells.[33,77]
as §1

[1] = system: WI-38 normal fibroblast cells; experiment: in vitro; details: ratio of WI38 IC50 to cancer cell IC50 values
Procedure: as §2, §1

HL-60 cells [2] = experiment: Annexin V-FITC/PI apoptosis assay; type: cell-based, human; details: 24 h, at IC50 concentration
Excerpt: Most anticancer agents kill cancer cells via an apoptosis induction mechanism.[33,77]
As per our earlier study, we induced apoptosis using the leukemia HL-60 cell line and a widely recognized Annexin 5-FITC/PI detection kit. The cell line samples were examined utilizing a FACSCalibur flow cytometer.[33,77]

HL-60 cells [3] = experiment: Cell cycle analysis by flow cytometry; type: cell-based, human; details: at IC50 concentration
Procedure: Flow cytometry measures cell growth in different cell cycle phases (G0–G1, S, G2/M and pre-G1).[33,77] This study aimed to find out how the target compounds affect the growth of cancer cells by examining at how they change the cell cycle and cause apoptosis in HL-60 cells.
The cell cycle analysis was conducted similarly to our prior study, using the leukemia HL-60 cell line. The cells were stained with the DNA fluorochrome PI and analyzed using a FACSCalibur flow cytometer.[33,77]

[4] = system: caspase-3 in MDA-MB-231 cells; experiment: Apoptotic markers assay, caspase-3; type: cell-based, human; details: at IC50 concentration, vs untreated control
Procedure: (§3) The levels of Bax (apoptosis promoter), Bcl-2 (apoptosis inhibitor), and apoptosis coordination enzymes (caspase-3 and caspase-9) were measured.[78–80]
(§4) Apoptotic markers experiment was performed according to reported procedure using MDA-MB-231 cancer cell line.[78–80]

[5] = system: caspase-9 in MDA-MB-231 cells; experiment: Apoptotic markers assay, caspase-9; type: cell-based, human; details: at IC50 concentration, vs untreated control
Procedure: as §3, §4

Bax in MDA-MB-231 cells = experiment: Apoptotic markers assay, Bax; type: cell-based, human; details: at IC50 concentration, vs untreated control
Procedure: as §3, §4

[6] = system: Bcl-2 in MDA-MB-231 cells; experiment: Apoptotic markers assay, Bcl-2; type: cell-based, human; details: at IC50 concentration, vs untreated control
Procedure: as §3

HER2 = HER2 (Homo sapiens, UniProt P04626); experiment: HER2 tyrosine kinase inhibition assay
VEGFR2 = VEGFR2 (Homo sapiens, UniProt P35968); experiment: VEGFR2 tyrosine kinase inhibition assay
Sequence of VEGFR2 (P35968 20-1356): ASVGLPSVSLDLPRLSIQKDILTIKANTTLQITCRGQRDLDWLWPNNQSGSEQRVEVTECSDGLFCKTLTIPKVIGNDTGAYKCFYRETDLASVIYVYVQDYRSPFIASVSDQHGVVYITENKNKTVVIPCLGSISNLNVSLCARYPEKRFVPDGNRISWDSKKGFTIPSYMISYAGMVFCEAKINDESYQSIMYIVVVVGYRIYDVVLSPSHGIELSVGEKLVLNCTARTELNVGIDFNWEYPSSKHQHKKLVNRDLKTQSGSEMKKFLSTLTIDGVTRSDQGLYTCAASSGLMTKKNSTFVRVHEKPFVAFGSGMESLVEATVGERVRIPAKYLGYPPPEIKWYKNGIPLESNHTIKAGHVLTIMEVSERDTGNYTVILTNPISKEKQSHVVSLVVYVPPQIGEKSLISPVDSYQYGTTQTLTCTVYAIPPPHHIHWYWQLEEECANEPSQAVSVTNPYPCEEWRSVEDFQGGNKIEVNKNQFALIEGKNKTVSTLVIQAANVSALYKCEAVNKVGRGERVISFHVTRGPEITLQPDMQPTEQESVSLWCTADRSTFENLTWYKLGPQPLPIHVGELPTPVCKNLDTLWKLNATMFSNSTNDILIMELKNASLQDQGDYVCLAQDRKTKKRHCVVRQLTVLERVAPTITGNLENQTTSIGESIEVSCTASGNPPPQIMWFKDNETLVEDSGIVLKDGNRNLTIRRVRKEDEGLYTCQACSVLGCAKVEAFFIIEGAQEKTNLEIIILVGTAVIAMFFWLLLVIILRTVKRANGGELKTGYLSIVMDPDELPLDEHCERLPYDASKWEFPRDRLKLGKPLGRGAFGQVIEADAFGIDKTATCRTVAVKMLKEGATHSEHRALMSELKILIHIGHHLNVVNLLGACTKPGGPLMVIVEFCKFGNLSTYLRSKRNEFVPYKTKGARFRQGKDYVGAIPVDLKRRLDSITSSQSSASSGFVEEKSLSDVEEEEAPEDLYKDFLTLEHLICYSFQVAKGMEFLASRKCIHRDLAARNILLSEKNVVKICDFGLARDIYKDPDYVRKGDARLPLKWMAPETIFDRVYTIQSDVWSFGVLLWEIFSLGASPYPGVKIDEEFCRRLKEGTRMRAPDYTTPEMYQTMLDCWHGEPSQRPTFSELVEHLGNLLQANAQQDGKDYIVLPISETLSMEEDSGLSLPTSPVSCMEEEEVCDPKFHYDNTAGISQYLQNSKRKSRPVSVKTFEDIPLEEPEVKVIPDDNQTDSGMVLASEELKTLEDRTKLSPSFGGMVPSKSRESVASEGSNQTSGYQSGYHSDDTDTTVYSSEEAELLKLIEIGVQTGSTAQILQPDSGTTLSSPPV

Sequence of HER2 (P04626 23-1255): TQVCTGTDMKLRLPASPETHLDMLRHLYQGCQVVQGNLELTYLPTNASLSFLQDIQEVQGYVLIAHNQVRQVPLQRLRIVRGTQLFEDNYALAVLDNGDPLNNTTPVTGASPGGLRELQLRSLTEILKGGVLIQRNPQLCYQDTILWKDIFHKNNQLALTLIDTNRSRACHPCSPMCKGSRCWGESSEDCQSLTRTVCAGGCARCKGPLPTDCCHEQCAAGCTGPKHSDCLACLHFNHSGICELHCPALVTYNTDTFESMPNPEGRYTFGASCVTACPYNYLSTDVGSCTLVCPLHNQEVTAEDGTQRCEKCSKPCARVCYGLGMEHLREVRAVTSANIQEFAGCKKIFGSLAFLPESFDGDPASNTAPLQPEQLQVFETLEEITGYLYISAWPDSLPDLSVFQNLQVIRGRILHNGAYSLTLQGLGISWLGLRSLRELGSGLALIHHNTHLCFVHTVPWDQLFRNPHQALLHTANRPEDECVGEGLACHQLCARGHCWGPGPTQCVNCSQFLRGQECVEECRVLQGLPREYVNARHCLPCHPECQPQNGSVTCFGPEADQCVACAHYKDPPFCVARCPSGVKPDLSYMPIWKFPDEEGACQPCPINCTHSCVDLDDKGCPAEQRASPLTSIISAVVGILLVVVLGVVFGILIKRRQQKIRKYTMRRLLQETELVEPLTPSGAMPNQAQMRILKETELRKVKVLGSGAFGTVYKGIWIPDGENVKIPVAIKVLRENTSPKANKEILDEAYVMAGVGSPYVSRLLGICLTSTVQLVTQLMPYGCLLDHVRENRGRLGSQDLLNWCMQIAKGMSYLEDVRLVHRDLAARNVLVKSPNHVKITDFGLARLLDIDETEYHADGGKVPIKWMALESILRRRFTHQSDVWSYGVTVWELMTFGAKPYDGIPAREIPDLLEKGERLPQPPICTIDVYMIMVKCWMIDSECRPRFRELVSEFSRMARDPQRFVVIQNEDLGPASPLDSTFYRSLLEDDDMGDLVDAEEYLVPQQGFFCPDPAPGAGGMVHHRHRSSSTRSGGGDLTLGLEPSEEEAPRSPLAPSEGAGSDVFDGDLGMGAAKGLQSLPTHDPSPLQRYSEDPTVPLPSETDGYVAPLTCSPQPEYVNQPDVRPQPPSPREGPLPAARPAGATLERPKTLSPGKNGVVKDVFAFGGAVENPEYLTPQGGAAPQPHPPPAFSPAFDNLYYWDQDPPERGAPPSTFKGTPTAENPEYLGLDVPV

Compound | PCE (positive cytotoxic effect: ratio of cell lines with growth inhibition >10% to total cell lines) (59 cancer cell lines) | MG% (mean growth percent) (59 cancer cell lines) | Mean GI% Breast cancer (59 cancer cell lines) | Mean GI% Leukemia (59 cancer cell lines) | GI% (HL-60(TB)) | GI% (K-562) | GI% (MOLT-4) | GI% (EKVX) | GI% (HOP-62) | GI% (NCI-H522) | GI% (COLO 205) | GI% (HT29) | GI% (U251) | GI% (UACC-257) | GI% (SK-OV-3) | GI% (CAKI-1) | GI% (UO-31) | GI% (MCF7) | GI% (BT-549) | GI% (T-47D) | further results
CS(=O)(=O)c1ccc(C(=O)N2N=C(c3ccccc3)CC2c2ccc(F)cc2)cc1 (stereo not drawn) [Compound 18c, (5-(4-Fluorophenyl)-3-phenyl-4,5-dihydro-1H-pyrazol-1-yl)(4-(methylsulfonyl)phenyl)methanone] | 21/59 | 90.58% | 16% | 35% | 46% | 33% | 39% | 15% | 26% | 48% | 22% | 19% | 12% | 32% | 14% | 22% | 20% | 11% | 14% | 24% | IC50 (MDA-MB-231): 12.5 ± 0.56 µM; IC50 (leukemia HL-60): 8.43 ± 1.7 µM; IC50 at 48 h (in vitro): 34.8 ± 1.54 µM; Mean tumor selectivity index (WI38/HL60, MCF7, and MDA-MB-231) [1]: 3.02; Apoptosis Early (HL-60 cells [2]): 2.91%; Apoptosis Late (HL-60 cells [2]): 4.4%; Apoptosis Total (percentage of annexin V-FITC positive cells) (HL-60 cells [2]): 8.06%; Necrosis (HL-60 cells [2]): 0.76%; % G0–G1 (HL-60 cells [3]): 51.19%; % G2–M (HL-60 cells [3]): 17.53%; % Pre-G1 (HL-60 cells [3]): 8.07%; % S (HL-60 cells [3]): 31.28%; phase of cell cycle arrest (HL-60 cells [3]): S/G2 phase; Casp3 gene expression (fold change) [4]: 7.453 fold change; Casp9 gene expression (fold change) [5]: 5.158 fold change; Bax gene expression (fold change) (Bax in MDA-MB-231 cells): 4.413 fold change; Bcl2 gene expression (fold change) [6]: 0.184 fold change; IC50 (HER2): 1.43 ± 0.047 µM; IC50 (VEGFR2): 0.218 ± 0.005 µM
Cc1ccc(C2=NN(C(=O)c3ccc(S(C)(=O)=O)cc3)C(c3ccc(C)cc3)C2)cc1 (stereo not drawn) [Compound 18g, (3,5-Bis(4-tolyl)-4,5-dihydro-1H-pyrazol-1-yl)(4-(methylsulfonyl)phenyl)methanone] | 48/59 | 72.98% | 31% | 63% | 66% | 80% | 56% | 25% | 26% | 73% | 33% | 15% | 23% | 40% | 26% | 43% | 26% | 52% | 27% | 32% | IC50 (MDA-MB-231): 4.07 ± 0.18 µM; IC50 (leukemia HL-60): 10.4 ± 0.68 µM; IC50 at 48 h (in vitro): 26.2 ± 1.16 µM; Mean tumor selectivity index (WI38/HL60, MCF7, and MDA-MB-231) [1]: 3.73; Apoptosis Early (HL-60 cells [2]): 4.47%; Apoptosis Late (HL-60 cells [2]): 7.84%; Apoptosis Total (percentage of annexin V-FITC positive cells) (HL-60 cells [2]): 13.69%; Necrosis (HL-60 cells [2]): 1.38%; % G0–G1 (HL-60 cells [3]): 43.52%; % G2–M (HL-60 cells [3]): 29.09%; % Pre-G1 (HL-60 cells [3]): 13.69%; % S (HL-60 cells [3]): 27.39%; phase of cell cycle arrest (HL-60 cells [3]): S/G2 phase; Casp3 gene expression (fold change) [4]: 3.945 fold change; Casp9 gene expression (fold change) [5]: 4.386 fold change; Bax gene expression (fold change) (Bax in MDA-MB-231 cells): 3.054 fold change; Bcl2 gene expression (fold change) [6]: 0.252 fold change; IC50 (HER2): 0.496 ± 0.016 µM; IC50 (VEGFR2): 0.168 ± 0.003 µM
CS(=O)(=O)c1ccc(C(=O)N2N=C(c3ccccc3)CC2c2ccccc2O)cc1 (stereo not drawn) [Compound 18h, (5-(2-Hydroxyphenyl)-3-phenyl-4,5-dihydro-1H-pyrazol-1-yl)(4-(methylsulfonyl)phenyl)methanone] | 51/59 | 72.20% | 24% | 46% | 73% | 55% | 62% | 41% | 47% | 55% | 20% | 20% | 48% | 39% | 25% | 33% | 47% | 22% | 19% | 30% | IC50 (MDA-MB-231): 7.18 ± 0.32 µM; IC50 (leukemia HL-60): 8.99 ± 0.4 µM; IC50 at 48 h (in vitro): 40.9 ± 1.81 µM; Mean tumor selectivity index (WI38/HL60, MCF7, and MDA-MB-231) [1]: 4.51; Apoptosis Early (HL-60 cells [2]): 6.18%; Apoptosis Late (HL-60 cells [2]): 3.34%; Apoptosis Total (percentage of annexin V-FITC positive cells) (HL-60 cells [2]): 10.77%; Necrosis (HL-60 cells [2]): 1.25%; % G0–G1 (HL-60 cells [3]): 53.27%; % G2–M (HL-60 cells [3]): 17.07%; % Pre-G1 (HL-60 cells [3]): 10.77%; % S (HL-60 cells [3]): 29.66%; phase of cell cycle arrest (HL-60 cells [3]): S/G2 phase; Casp3 gene expression (fold change) [4]: 5.559 fold change; Casp9 gene expression (fold change) [5]: 2.799 fold change; Bax gene expression (fold change) (Bax in MDA-MB-231 cells): 2.154 fold change; Bcl2 gene expression (fold change) [6]: 0.423 fold change; IC50 (HER2): 0.253 ± 0.008 µM; IC50 (VEGFR2): 0.135 ± 0.009 µM
